Earlier results as cited in patent US8287898B2, “Compositions and methods for body weight management” (The Procter & Gamble Company, priority 2000, dated 2012).
Read-outs that look alike come from different tables or passages of the source.

Columns and labels:
[1] = sham feeding rat model
[2] = jejunally infused neat, 0.2 mL/hr for seven hours, rats
[3] = solutions infused in the duodenum or mid-gut (jejunum), or into the colon; rats, three hours of feeding

| Structure (SMILES) | total caloric intake ([1]; duodenally infused emulsion) | total caloric intake ([1]; ileal infusion) | total daily caloric intake [2] | total caloric intake [3] |
| --- | --- | --- | --- | --- |
| CCCCC/C=C\C/C=C\CCCCCCCC(=O)O [linoleic acid] | reduce total caloric intake | do not | significantly reduce | – |
| CC/C=C\C/C=C\C/C=C\CCCCCCCC(=O)O [linolenic] | somewhat less effective | – | – | – |
| CCCCCCCC/C=C\CCCCCCCC(=O)O [oleic acid] | somewhat less effective | – | significantly reduce | – |
| N[C@@H](Cc1ccccc1)C(=O)O [phenylalanine] | – | – | – | suppressed total caloric intake |
| N[C@@H](Cc1c[nH]c2ccccc12)C(=O)O [tryptophan] | – | – | – | suppressed total caloric intake |
